In patent publication US5200407A, “Azole derivatives and anti-ulcerative composition containing same” (Meiji Seika Kaburhiki Kaisha, priority 1989, dated 1993):

Test system: not listed separately
Test: Toxicity (LD50)
Conditions: mouse, in vivo; mice, oral
From the text: The compounds of the present invention are of low toxicity, as appreciated from Example Compound Nos. 79, 104 and 133 having up to 1 g/kg of LD50 value (mice, by an oral).

Row | Compound | LD50 [mg/kg]
1 | CCCCOC(=O)C[S+]([O-])c1nc2cccnc2s1 (stereo not shown) [Example 79, 2-[(n-butoxycarbonylmethyl)sulfinyl]thiazolo[5,4-b]pyridine] | ≥ 1000
2 | CCOC(=O)C[S+]([O-])c1nc2ncccc2s1 (stereo not shown) [Example 104, 2-[(ethoxycarbonylmethyl)sulfinyl]thiazolo[4,5-b]pyridine] | ≥ 1000
3 | CC1(C)CCCC(C)(C)N1CC[S+]([O-])c1nc2ncc(C(F)(F)F)cc2s1 (stereo not shown) [Example 133] | ≥ 1000

Test system: ulceration
Test: Water-immersion, restraint stress ulcerogenic testing
Format: in vivo, Wister male rats
Conditions: Rattus norvegicus, Table 1, suspended in 0.5% CMC, one hour prior to stressing, water immersion restraint six hours, rats
Procedure: 1. Water-immersion, restraint stress ulcerogenic testing
Wister male rats (11-week age) fasted for 18 hours were placed in a restraint cage, which was in turn immersed to a depth of the pectoral region in water at 20° to 22° C. to leave the rats under stress for six hours. Then, the rats were drawn up from the water and put down by vertebral dislocation. Afterwards, the stomach was removed, infused with 50 ml of a 5% aqueous solution of formalin and was wholly immersed in the same solution for 30 minutes for fixation. The fixed sample was dissected along the curvatura ventriculi major, and the ulcerated regions were measured along their major length (in mm) by means of slide calipers. The total sum of the measurements per rat is a value of ulceration. The compounds under test, suspended in 0.5% carboxymethylcellulose (CMC), were administered to the rats at a single dose of 5 ml/kg body weight (corresponding to 30 mg/kg body weight of the compound) one hour prior to the stressing. To a control group, only 0.5% CMC was administrated at a dose of 5 ml/kg weight. The rate of depression of ulceration was calculated according to the following equation: [formula]

Row | Compound | inhibition in vivo at 30 mg/kg [%]
4 | CCOCC[S+]([O-])c1nc2cnccc2s1 (stereo not shown) [Example 123, 2-[(2-ethoxymethyl)sulfinyl]thiazolo[4,5-c]pyridine] | 15
5 | [O-][S+](CCc1ccccn1)c1nc2cccnc2s1 (stereo not shown) [Example 125, 2-[2(pyridin-2-yl)-ethylsulfinyl]thiazolo[4,5-]pyridine] | 44
6 | Cn1nnnc1CCCC[S+]([O-])c1nc2cccnc2s1 (stereo not shown) [Example 100, 2-[(4-(1-methyltetrazol-5-y1)butyl)sulfinyl]thiazolo[5,4-b]pyridine] | 95
7 | CC1(C)CCCC(C)(C)N1CCSc1nc2cccnc2o1 [Example 48, 2-[(2-(2,2,6,6-tetramethylpiperidin-1-yl)ethyl)thio]oxazolo[5,4-b]pyridine] | 99
8 | CC(C)=CC[S+]([O-])c1nc2cccnc2s1 (stereo not shown) [Example 127, 2-[(3-methyl-2-butenyl)sulfinyl]thiazolo[5,4-b]pyridine] | 0
9 | CCOCC[S+]([O-])c1nc2cccnc2[nH]1 (stereo not shown) [Example 124] | 25
10 | CC(C)N(CC[S+]([O-])c1nc2cnccc2s1)C(C)C (stereo not shown) [Example 130] | 76
11 | CC1(C)CCCC(C)(C)N1CC[S+]([O-])c1nc2cccnc2s1 (stereo not shown) [Example 129, 2-[{2-(2,2,6,6-tetramethylpiperidin-1-yl)ethyl)sulfinyl]thiazolo[5,4-b]pyridine] | 99
12 | CN1CCCC1CCSc1nc2cccnc2s1 (stereo not shown) [Example 70, 2-[(2-(1-methylpyrrolidin-2-yl)ethyl)thio]thiazolo[5,4-b]pyridine] | 42
13 | CCOC(=O)C[S+]([O-])c1nc2cccnc2s1 (stereo not shown) [Example 128, 2-[(ethoxycarbonylmethyl)sulfinyl]thiazolo[5,4-b]pyridine] | 91
14 | CN1CCN(CCC[S+]([O-])c2nc3cccnc3s2)CC1 (stereo not shown) [Example 151, 2-[(3-(1-methylpiperazin-4-yl)propyl)sulfinyl]thiazolo[5,4-b]pyridine] | 39
15 | [O-][S+](CCN1CCOCC1)c1nc2cccnc2s1 (stereo not shown) [Example 138] | 68
16 | CC(C)COC(=O)C[S+]([O-])c1nc2cccnc2s1 (stereo not shown) [Example 101, 2-[(isobutoxycarbonylmethyl)sulfinyl]thiazolo[5,4-b]pyridine] | 75
17 | CN1CCCC(C[S+]([O-])c2nc3cccnc3s2)C1 (stereo not shown) [Example 147, 2-[(1-methylpiperidin-3-yl)methylsulfinyl]thiazolo[5,4-b]pyridine] | 64
18 | [O-][S+](CCN1CCOCC1)c1nc2cc(Cl)cnc2s1 (stereo not shown) [Example 142] | 13
19 | CC(C)N(CCSc1nc2ncccc2o1)C(C)C [Example 51, 2-[(2-di-isopropylaminoethyl)thio]oxazolo[4,5-b]pyridine] | 88
20 | CCCCOC(=O)C[S+]([O-])c1nc2cccnc2s1 (stereo not shown) [Example 79, 2-[(n-butoxycarbonylmethyl)sulfinyl]thiazolo[5,4-b]pyridine] | 76
21 | CC(=O)OCC[S+]([O-])c1nc2cccnc2s1 (stereo not shown) [Example 110, 2-[(2-acetoxyethyl)sulfinyl]thiazolo[5,4-b]pyridine] | 79
22 | O=C(C[S+]([O-])c1nc2cccnc2s1)NC1CCCCC1 (stereo not shown) [Example 117, 2-[(N-cyclohexylcarbamoylmethyl)sulfinyl]thiazolo[5,4-b]pyridine] | 77
23 | O=C1NCC(C[S+]([O-])c2nc3cccnc3s2)O1 (stereo not shown) [Example 126, 2-[(2-oxazolidion-5-yl)methylsulfinyl]thiazolo[5,4-b]pyridine] | 60
24 | CCOCC[S+]([O-])c1nc2cccnc2s1 (stereo not shown) [Example 121] | 67
25 | CC(C)N(CC[S+]([O-])c1nc2cccnc2s1)C(C)C (stereo not shown) [Example 149, 2-[(2-di-isopropylaminoethvl)sulfinyl]thiazolo[5,4-b]pyridine] | 99

Row | Compound | inhibition in vivo at 30 mg/kg [%]
26 | CN1CCC([S+]([O-])c2nc3cccnc3s2)CC1 (stereo not shown) [Example 148, 2-[(1-methylpiperidin-4-yl)sulfinyl]thiazolo[5,4-b]pyridine] | 78
27 | O=S(=O)(CCN1CCOCC1)c1nc2cccnc2s1 [Example 139] | 47
28 | CN1CCCC1CC[S+]([O-])c1nc2cccnc2s1 (stereo not shown) [Example 144, 2-[(2-(1-methylpyrrolidin-2-y1)ethyl)sulfinyl]thiazolo[5,4-b]pyridine] | 85
29 | CC(C)N(CC[S+]([O-])c1nc2ncccc2s1)C(C)C (stereo not shown) [Example 136] | 94
30 | CC(C)N(CCS(=O)(=O)c1nc2cccnc2s1)C(C)C [Example 150, 2-[(2-di-isooropylaminoethyl)sulfonyl]thiazolo[5,4-b]pyridine] | 61
31 | C[S+]([O-])c1nc2cccnc2s1 (stereo not shown) [Example 103, 2-methylsulfinylthiazolo[5,4-b]pyridine] | 84
32 | CN1CCCC1CCS(=O)(=O)c1nc2cccnc2s1 (stereo not shown) [Example 145, 2-[(2-(1-methylpyrrolidin-2-yl)ethyl)sulfonyl]thiazolo[5,4-b]pyridine] | 68
33 | C=CCOC(=O)C[S+]([O-])c1nc2cccnc2s1 (stereo not shown) [Example 89, 2-[(allyloxvcarbonylmethyl)sulfinyl]thiazolo[5,4-b]pyridine] | 72
34 | Cn1nnnc1C[S+]([O-])c1nc2cccnc2s1 (stereo not shown) [Example 120, 2-[((1-methyltetrazol-5-yl)methyl)sulfinyl]thiazolo[5,4-b]pyridine] | 86
35 | CCOC(=O)C[S+]([O-])c1nc2ncccc2s1 (stereo not shown) [Example 104, 2-[(ethoxycarbonylmethyl)sulfinyl]thiazolo[4,5-b]pyridine] | 68
36 | CC1(C)CCCC(C)(C)N1CC[S+]([O-])c1nc2ncc(C(F)(F)F)cc2s1 (stereo not shown) [Example 133] | 98
37 | [O-][S+](CCN1CCOCC1)c1nc2ncccc2[nH]1 (stereo not shown) [Example 143, 2-[(2-morpholinoethyl)sulfinyl]imidazo[4,5-b]pyridine] | 54
38 | CCN(CC)CC[S+]([O-])c1nc2cccnc2s1 (stereo not shown) [Example 141] | 41
39 | COC(=O)C[S+]([O-])c1nc2cccnc2s1 (stereo not shown) [Example 93, 2-[(methoxycarbonylmethyl)sulfinyl]thiazolo[5,4-b]pyridine] | 73
40 | CCOCC[S+]([O-])c1nc2cc(Cl)cnc2s1 (stereo not shown) [Example 122] | 13
41 | CC1(C)CCCC(C)(C)N1CCSc1nc2ncccc2o1 [Example 47, 2-[(2-(2,2,6,6-tetramethylpiperidin-1-yl)ethyl)thio]oxazolo[4,5-b]pyridine] | 99
42 | NC(=O)C[S+]([O-])c1nc2cccnc2s1 (stereo not shown) [Example 135, 2-[(carbamoylmethyl)sulfinyl]thiazolo[5,4-b]pyridine] | 86
43 | CC(C)N(CC[S+]([O-])c1nc2ncc(C(F)(F)F)cc2s1)C(C)C (stereo not shown) [Example 131] | 71
44 | c1cnc2sc(SCCN3CCOCC3)nc2c1 [Example 65, 2-[(2-morpholinoethyl)thio]thiazolo[5,4-b]pyridine] | 58
45 | [O-][S+](CCN1CCOCC1)c1nc2cnccc2s1 (stereo not shown) [Example 140] | 58
46 | C/C=C/COC(=O)C[S+]([O-])c1nc2cccnc2s1 (stereo not shown) [Example 84, 2-[(crotyloxycarbonylmethyl)sulfinyl]thiazolo[5,4-b]pyridine] | 75

Same assay, conditions: Table 1; 30 mg/kg, suspended in 0.5% CMC, one hour prior to stressing; water immersion restraint six hours; rats

Row | Compound | % Ulceration Inhibition [%]
47 | 2-[(2-ureidoethyl)sulfinyl]thiazolo[5,4-b]pyridine [Example 146] | 19

Test system: ulceration
Test: Ethanol-induced ulceration
Format: in vivo, Donryu masculine rats
Conditions: 30 mg/kg oral, in 0.5% CMC, one hour prior to 100% ethanol; control nearly 100% erosion; rats
Procedure: 2. Ethanol-induced ulceration
Five (5) ml/kg of 100% ethanol was orally administrated to Donryu masculine rats fasted for 48 hours and dehydrated for 24 hours. One hour later, the rats were put down in similar manners as mentioned above test to remove and treat the stomach. The compounds under test, suspended in 0.5% CMC, were orally administered to the rats at a dose of 5 ml/kg body weight (corresponding to 30 mg/kg body weight of that compound) one hour prior to the administration of ethanol.

Row | Compound | depression of erosion [%]
48 | CCCCOC(=O)C[S+]([O-])c1nc2cccnc2s1 (stereo not shown) [Example 79, 2-[(n-butoxycarbonylmethyl)sulfinyl]thiazolo[5,4-b]pyridine] | 98

Same assay, conditions: Table 2; 30 mg/kg oral, in 0.5% CMC, one hour prior to 100% ethanol; rats

Row | Compound | % Ulceration Inhibition [%]
49 | CCOC(=O)C[S+]([O-])c1nc2cccnc2s1 (stereo not shown) [Example 128, 2-[(ethoxycarbonylmethyl)sulfinyl]thiazolo[5,4-b]pyridine] | 99
50 | [O-][S+](CCN1CCOCC1)c1nc2cccnc2s1 (stereo not shown) [Example 138] | 97
51 | CCCCOC(=O)C[S+]([O-])c1nc2cccnc2s1 (stereo not shown) [Example 79, 2-[(n-butoxycarbonylmethyl)sulfinyl]thiazolo[5,4-b]pyridine] | 98
52 | CC(C)N(CC[S+]([O-])c1nc2cccnc2s1)C(C)C (stereo not shown) [Example 149, 2-[(2-di-isopropylaminoethvl)sulfinyl]thiazolo[5,4-b]pyridine] | 94
